Inconclusive results and toxic doses are left out. No stated cut-off is given here; in the data, active means T/C of 150% or more; inactive means T/C below 125%.
Tested on: L1210 leukemia ip in BDF1 mice, survival T/C
Experiment: NCI In Vivo Anticancer Drug Screen. Data for tumor model L1210 Leukemia (intraperitoneal) in B6D2F1 (BDF1) mice
Settings: endpoint: mean survival time, higher = longer survival
Procedure, shortened: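 Transplantable tumor model; survival measured in treated vs vehicle control mice. Value = treated/control.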

[1] = dose: 100.0 mg/kg/injection, schedule: Q01DX001 (ip), vehicle: saline
[2] = dose: 200.0 mg/kg/injection, schedule: Q01DX001 (ip), vehicle: saline
[3] = dose: 100.0 mg/kg/injection, schedule: Q04DX003 (ip), vehicle: saline
[4] = dose: 200.0 mg/kg/injection, schedule: Q04DX003 (ip), vehicle: saline
[5] = dose: 400.0 mg/kg/injection, schedule: Q04DX003 (ip), vehicle: saline

Measured: T/C

CC1(C)N=C(N)N=C(N)N1c1cccc(CCCCCc2ccccc2)c1
inactive: dose: 25.0 mg/kg/injection, schedule: Q01DX001 (ip), vehicle: saline 94 % of control

CCCN=C(N)c1ccc(N=C(N)c2ccc(N=C(N)c3ccc(C(N)=NCCC)cc3)cc2)cc1
active: dose: 15.0 mg/kg/injection, schedule: Q01DX Z (ip), vehicle: carboxymethylcellulose (CMC) 154 % of control
inactive: dose: 30.0 mg/kg/injection, schedule: Q01DX Z (ip), vehicle: carboxymethylcellulose (CMC) 88 % of control | dose: 50.0 mg/kg/injection, schedule: Q01DX Z (oral), vehicle: carboxymethylcellulose (CMC) 110 % of control | dose: 100.0 mg/kg/injection, schedule: Q01DX Z (oral), vehicle: carboxymethylcellulose (CMC) 109 % of control | dose: 200.0 mg/kg/injection, schedule: Q01DX Z (oral), vehicle: carboxymethylcellulose (CMC) 106 % of control | dose: 400.0 mg/kg/injection, schedule: Q01DX Z (oral), vehicle: carboxymethylcellulose (CMC) 109 % of control

CC1=NN(c2ccccc2)C(=O)C1N=Nc1ccc(S(=O)(=O)Nc2nccs2)cc1 (centres undefined)
inactive: [1] 96 % of control | [2] 91 % of control | dose: 400.0 mg/kg/injection, schedule: Q01DX001 (ip), vehicle: saline 91 % of control

CNC(=O)Cc1ccc2cc(OC)c(OC)cc2c1
inactive: dose: 100.0 mg/kg/injection, schedule: Q04DX003 (ip), vehicle: saline with Tween-80 95 % of control | dose: 200.0 mg/kg/injection, schedule: Q04DX003 (ip), vehicle: saline with Tween-80 101 % of control | dose: 400.0 mg/kg/injection, schedule: Q04DX003 (ip), vehicle: saline with Tween-80 91 % of control

CC(=O)N(C)NC(=O)c1ccccn1
inactive: dose: 12.5 mg/kg/injection, schedule: Q01DX009 (ip), vehicle: water 103 % of control | dose: 25.0 mg/kg/injection, schedule: Q01DX009 (ip), vehicle: water 103 % of control | dose: 50.0 mg/kg/injection, schedule: Q01DX009 (ip), vehicle: water 105 % of control

CC(O)(CCl)C(=O)O (centres undefined)
inactive: [3] 96 % of control | [4] 98 % of control | [5] 96 % of control

O=C(O)/C=C(\Cl)CC(=O)O
inactive: [1] 102 % of control | [2] 96 % of control

C=CC(OC)OC
inactive: dose: 25.0 mg/kg/injection, schedule: Q04DX003 (ip), vehicle: saline 95 % of control | dose: 50.0 mg/kg/injection, schedule: Q04DX003 (ip), vehicle: saline 93 % of control

CC(=O)OC1(C(C)=O)CCC2C3CC(C)(O)C4=CC(=O)CCC4(C)C3CCC21C (centres undefined)
inactive: dose: 25.0 mg/kg/injection, schedule: Q01DX009 (ip), vehicle: Klucel (hydroxypropylcellulose) (HPC) 97 % of control | dose: 50.0 mg/kg/injection, schedule: Q01DX009 (ip), vehicle: Klucel (hydroxypropylcellulose) (HPC) 95 % of control | dose: 100.0 mg/kg/injection, schedule: Q01DX009 (ip), vehicle: Klucel (hydroxypropylcellulose) (HPC) 103 % of control | dose: 200.0 mg/kg/injection, schedule: Q01DX009 (ip), vehicle: Klucel (hydroxypropylcellulose) (HPC) 101 % of control

Cc1nc(N)[nH]c(=O)c1NC(=O)CCc1ccccc1
inactive: dose: 6.25 mg/kg/injection, schedule: Q01DX001 (ip), vehicle: saline with Tween-80 105 % of control | dose: 12.5 mg/kg/injection, schedule: Q01DX001 (ip), vehicle: saline with Tween-80 101 % of control | dose: 25.0 mg/kg/injection, schedule: Q01DX001 (ip), vehicle: saline with Tween-80 98 % of control

CCC(=O)OC1CC2(C)C(=CC1=O)CCC1C2CCC2(C)C(OC(=O)CC)CCC12 (centres undefined)
inactive: dose: 100.0 mg/kg/injection, schedule: Q01DX009 (ip), vehicle: saline 97 % of control | dose: 200.0 mg/kg/injection, schedule: Q01DX009 (ip), vehicle: saline 96 % of control | dose: 400.0 mg/kg/injection, schedule: Q01DX009 (ip), vehicle: saline 96 % of control

CCN(c1ccccc1P(c1ccccc1)c1ccccc1)c1ccccc1P(c1ccccc1)c1ccccc1
inactive: dose: 25.6 mg/kg/injection, schedule: Q04DX002 (ip), vehicle: saline with Tween-80 89 % of control | dose: 64.0 mg/kg/injection, schedule: Q04DX002 (ip), vehicle: saline with Tween-80 89 % of control | dose: 160.0 mg/kg/injection, schedule: Q04DX002 (ip), vehicle: saline with Tween-80 89 % of control | dose: 400.0 mg/kg/injection, schedule: Q04DX002 (ip), vehicle: saline with Tween-80 89 % of control

CCCC1(CCC)NC(=O)N(CC(=O)OCC)C1=O
inactive: dose: 100.0 mg/kg/injection, schedule: Q01DX009 (ip), vehicle: saline with Tween-80 94 % of control | dose: 200.0 mg/kg/injection, schedule: Q01DX009 (ip), vehicle: saline with Tween-80 96 % of control | dose: 400.0 mg/kg/injection, schedule: Q01DX009 (ip), vehicle: saline with Tween-80 102 % of control

O=C(O)CCCC1CCC(=O)CC1
inactive: [3] 109 % of control | [4] 96 % of control | [5] 100 % of control

CCCCCCCCCCCCCCCCCCNC(=O)Nc1ccccc1CC
inactive: dose: 100.0 mg/kg/injection, schedule: Q01DX009 (sc), vehicle: olive oil, sesame oil, peanut oil 104 % of control | dose: 100.0 mg/kg/injection, schedule: Q04DX003 (sc), vehicle: olive oil, sesame oil, peanut oil 98 % of control | dose: 200.0 mg/kg/injection, schedule: Q01DX009 (sc), vehicle: olive oil, sesame oil, peanut oil 104 % of control | dose: 200.0 mg/kg/injection, schedule: Q04DX003 (sc), vehicle: olive oil, sesame oil, peanut oil 94 % of control | dose: 400.0 mg/kg/injection, schedule: Q01DX009 (sc), vehicle: olive oil, sesame oil, peanut oil 106 % of control | dose: 400.0 mg/kg/injection, schedule: Q04DX003 (sc), vehicle: olive oil, sesame oil, peanut oil 109 % of control

From PubChem BioAssay AID248 (DTP/NCI, 2004)
